Where a name gives a salt, the structure may show the parent alone. Read-outs that look alike come from different tables or passages of the source.
Target: T1, Human IP6K1 (Homo sapiens, UniProt Q92551)
T1 construct: GST (N, cleaved yes); made in house; host or cells: C43 E. coli, pGEX-6P-2
Experiment: IP6K1 high-throughput screen of the Sigma LOPAC (ADP-Glo Max, single point);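 note: final compound concentration 10µM in 5% DMSO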
Type: biochemical

[1] = Sigma LOPAC single-point screen, ADP-Glo Max raw signal per well
[2] = Sigma LOPAC single-point screen, Z-score from plate average and StDev
[3] = LOPAC single-point screen, ADP-Glo Max raw signal per well
[4] = LOPAC single-point screen, Z-score against plate average and StDev
[5] = LOPAC single-point screen, Z-score from raw signal with plate average and StDev
[6] = LOPAC single-point screen, ADP-Glo Max luminescence raw signal per well
[7] = LOPAC single-point screen, Z-score relative to plate average and StDev
[8] = LOPAC single-point screen, Z-score from plate average and StDev

T1 sequence (Q92551 whole entry): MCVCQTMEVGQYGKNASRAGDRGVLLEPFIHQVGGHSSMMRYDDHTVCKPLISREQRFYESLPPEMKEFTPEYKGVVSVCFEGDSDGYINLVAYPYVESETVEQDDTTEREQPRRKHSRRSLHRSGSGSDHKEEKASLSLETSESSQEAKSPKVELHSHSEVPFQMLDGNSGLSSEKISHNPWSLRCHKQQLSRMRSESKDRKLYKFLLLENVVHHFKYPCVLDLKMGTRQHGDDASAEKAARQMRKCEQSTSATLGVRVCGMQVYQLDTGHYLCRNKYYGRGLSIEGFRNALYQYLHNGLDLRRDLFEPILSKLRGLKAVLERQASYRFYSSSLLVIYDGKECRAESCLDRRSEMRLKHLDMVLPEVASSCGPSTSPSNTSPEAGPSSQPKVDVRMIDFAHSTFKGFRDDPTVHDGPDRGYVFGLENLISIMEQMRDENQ

Molecule: CN(C)CCC=C1c2ccccc2COc2ccccc21 [Doxepin hydrochloride]
- Raw Signal [1]: 58742
- Z-score [2]: 0.726

Molecule: CC(C)C[C@H](NC(=O)[C@H](O)[C@H](N)Cc1ccccc1)C(=O)O [Epibestatin hydrochloride]
- Raw Signal [3]: 58771
- Z-score [4]: 0.1511

Molecule: N#C/C(=C\c1ccc(O)c(O)c1)C(=O)NCCCc1ccccc1 [Tyrphostin AG 555]
- Raw Signal [3]: 55783
- Z-score [4]: -0.04678

Molecule: CC[C@H](C)[C@H]1O[C@]2(CC[C@@H]1C)C[C@@H]1C[C@@H](C/C=C(\C)[C@@H](O[C@H]3C[C@H](OC)[C@@H](O[C@H]4C[C@H](OC)[C@@H](O)[C@H](C)O4)[C@H](C)O3)[C@@H](C)/C=C/C=C3\CO[C@@H]4[C@H](O)C(C)=C[C@@H](C(=O)O1)[C@]34O)O2 [Ivermectin]
- Raw Signal [3]: 51728
- Z-score [5]: -0.4479

Molecule: CN1C[C@H](C(=O)N[C@]2(C)O[C@@]3(O)[C@@H]4CCCN4C(=O)[C@H](Cc4ccccc4)N3C2=O)C[C@@H]2c3cccc4[nH]cc(c34)C[C@H]21 [Dihydroergotamine methanesulfonate]
- Raw Signal [6]: 48691
- Z-score [7]: -1.315

Molecule: CCCN1CCO[C@@H]2c3cc(O)ccc3OC[C@H]21.Cl [S(+)-PD 128,907 hydrochloride]
- Raw Signal [3]: 56406
- Z-score [4]: 0.07425

Molecule: Nc1ccncc1 [4-Aminopyridine]
- Raw Signal [3]: 56638
- Z-score [5]: -0.2246

Molecule: C[C@@]12C(=O)OC(=O)[C@]1(C)[C@H]1CC[C@@H]2O1 [Cantharidin]
- Raw Signal [1]: 61165
- Z-score [2]: 0.5727

Molecule: CNCC[C@H](Oc1ccc(C(F)(F)F)cc1)c1ccccc1.Cl [S-(+)-Fluoxetine hydrochloride]
- Raw Signal [1]: 58446
- Z-score [2]: 0.6659

Molecule: N#CC(C#N)=Cc1ccc([N+](=O)[O-])c(O)c1 [Tyrphostin AG 126]
- Raw Signal [6]: 65028
- Z-score [8]: 1.749

Molecule: COC(=O)c1c(C)[nH]c(C)c1C(=O)c1ccccc1Cc1ccccc1 [FPL 64176]
- Raw Signal [3]: 56544
- Z-score [4]: 0.2796

Molecule: Nc1c(S(=O)(=O)O)cc(Nc2ccc(Nc3nc(Cl)nc(Nc4cccc(S(=O)(=O)O)c4)n3)c(S(=O)(=O)O)c2)c2c1C(=O)c1ccccc1C2=O [Reactive Blue 2]
- Raw Signal [6]: 20201
- Z-score [7]: -6.96

Molecule: CCNC(=O)[C@H]1O[C@@H](n2cnc3c(NCc4ccccc4)ncnc32)[C@H](O)[C@@H]1O [N6-Benzyl-5 -N-ethylcarboxamidoadenosine]
- Raw Signal [3]: 59001
- Z-score [4]: 0.1916

Molecule: N.N.N.N.N.N.N.N.N.N.N.N.N.N.[Cl-].[Cl-].[Cl-].[Cl-].[Cl-].[Cl-].[O-2].[O-2].[Ru+3].[Ru+3].[Ru+4] [Ruthenium red]
- Raw Signal [6]: 52989
- Z-score [7]: -0.5896

Molecule: COCCc1ccc(OCC(O)CNC(C)C)cc1.O=C(O)C(O)C(O)C(=O)O (racemic) [(±)-Metoprolol (+)-tartrate]
- Raw Signal [1]: 61286
- Z-score [2]: 1.158

Molecule: Cl.NCC(O)C1CCCCCCC1 (stereo not shown)
- Raw Signal [6]: 52354
- Z-score [7]: -0.5713

Molecule: S=C(Nc1ccccc1)Nc1nccs1 [1-Phenyl-3-(2-thiazolyl)-2-thiourea]
- Raw Signal [3]: 53752
- Z-score [5]: -0.1078

Molecule: O=c1oc(Cl)c(Cl)c2ccccc12 [3,4-Dichloroisocoumarin]
- Raw Signal [6]: 52609
- Z-score [7]: -0.5195

Molecule: CC(C)[C@H]1CN[C@H](C(=O)O)[C@H]1CC(=O)O [Dihydrokainic acid]
- Raw Signal [3]: 53229
- Z-score [5]: -0.3936

Molecule: C=CCN1CC[C@]23c4c5ccc(O)c4O[C@@H]2/C(=N/N=C2\CC[C@@]4(O)C6Cc7ccc(O)c8c7[C@@]4(CCN6CC=C)[C@@H]2O8)CC[C@@]3(O)C1C5.Cl.Cl [Naloxonazine dihydrochloride]
- Raw Signal [6]: 51290
- Z-score [7]: -0.5215

Molecule: COC(=O)C1=C(C)NC(C)=C([N+](=O)[O-])C1c1ccccc1C(F)(F)F (racemic) [(±)-Bay K 8644]
- Raw Signal [6]: 52853
- Z-score [7]: -0.8912

Molecule: COc1cc([C@@H]2c3cc4c(cc3[C@H](O)[C@H]3COC(=O)[C@H]23)OCO4)cc(OC)c1OC [Podophyllotoxin]
- Raw Signal [6]: 50929
- Z-score [7]: -0.5821

Molecule: CC12CC3CC(C)(C1)CC(N)(C3)C2 [Memantine hydrochloride]
- Raw Signal [3]: 56169
- Z-score [4]: 0.2983

Molecule: CCNC(=O)[C@H]1O[C@@H](n2cnc3c(N)nc(NCCc4ccc(CCC(=O)O)cc4)nc32)[C@H](O)[C@@H]1O.Cl [CGS-21680 hydrochloride]
- Raw Signal [6]: 62301
- Z-score [8]: 1.449

Molecule: CN1C(=O)CCS(=O)(=O)C1c1ccc(Cl)cc1 (stereo not shown) [Chlormezanone]
- Raw Signal [6]: 52438
- Z-score [7]: -0.5542

Molecule: Cl.O=C(CCCN1CCC2(CC1)C(=O)N(CCc1ccc(N=C=S)cc1)CN2c1ccccc1)c1ccc(F)cc1
- Raw Signal [3]: 54409
- Z-score [4]: 0.002603

Molecule: C#C[C@]1(O)CC[C@H]2[C@@H]3CCC4=Cc5nc6nc7ccccc7n6cc5C[C@]4(C)[C@H]3CC[C@@]21C [WIN 62,577]
- Raw Signal [1]: 58080
- Z-score [2]: 0.3995

Molecule: Cl.Cl.Cn1cnc(CCN)c1 [1-Methylhistamine dihydrochloride]
- Raw Signal [3]: 52776
- Z-score [5]: -0.2718

Molecule: C=CC(N)CCC(=O)O (racemic) [(±)-gamma-Vinyl GABA]
- Raw Signal [6]: 68019
- Z-score [8]: 2.33

Molecule: CC(C)(Sc1ccc(CCN(CCCCC2CCCCC2)C(=O)NC2CCCCC2)cc1)C(=O)O [GW7647]
- Raw Signal [6]: 52814
- Z-score [7]: -0.4779

Molecule: NCCSSCCN [Cystamine dihydrochloride]
- Raw Signal [3]: 58178
- Z-score [4]: 0.04666

Molecule: Cl.c1ccc([C@H]2CN3CCSC3=N2)cc1 [(-)-Tetramisole hydrochloride]
- Raw Signal: 55029
- Z-score: 0.1068

Molecule: CC(C)Cc1ccc(C(C)C(=O)O)cc1 (racemic) [(±)-Ibuprofen]
- Raw Signal [1]: 57086
- Z-score [2]: 0.4524

Molecule: NCCc1c[nH]c2ccc(O)cc12 [Serotonin hydrochloride]
- Raw Signal [1]: 60327
- Z-score [2]: 1.048

Molecule: CN1CC[C@]2(CCN3CCc4c(oc5ccccc45)[C@@H]3C2)N(C)C1=O.Cl [MK-912]
- Raw Signal [6]: 51307
- Z-score [7]: -0.5186

Molecule: CN1CCN(C2Cc3ccccc3Sc3ccc(Cl)cc32)CC1.O=C(O)/C=C\C(=O)O (racemic) [(±)-Octoclothepin maleate]
- Raw Signal [1]: 60782
- Z-score [2]: 1.073

Molecule: O=C(O)CC[N+](=O)[O-] [3-Nitropropionic acid]
- Raw Signal [3]: 53138
- Z-score [5]: -0.211

Molecule: Adenosine 3 ,5 -cyclic monophosphate
- Raw Signal: 66195
- Z-score: 1.459

Molecule: O=c1[nH]c2ccccc2c2ccccc12 [6(5H)-Phenanthridinone]
- Raw Signal [3]: 55315
- Z-score [5]: -0.1377

Molecule: CCn1c(=O)c2nc(-c3ccccc3)[nH]c2n(CC)c1=O [1,3-Diethyl-8-phenylxanthine]
- Raw Signal [3]: 56931
- Z-score [5]: -0.173

Molecule: CC[N+](CC)(CC)CC [Tetraethylammonium chloride]
- Raw Signal: 56416
- Z-score: 0.0762

Molecule: O=C(O)c1cccnc1Nc1cccc(C(F)(F)F)c1 [Niflumic acid]
- Raw Signal [6]: 47033
- Z-score [7]: -1.237

Molecule: CCCCC[C@H](CC(=O)NO)C(=O)N[C@H](C(=O)N1CCC[C@H]1CO)C(C)C [Actinonin]
- Raw Signal [1]: 64769
- Z-score [2]: 1.208

Molecule: Cl.NCCCCC(=O)O [5-Aminovaleric acid hydrochloride]
- Raw Signal [3]: 58378
- Z-score [4]: 0.08188

Molecule: COc1ccc2c(c1)c(CC(=O)O)c(C)n2C(=O)c1ccc(Cl)cc1 [Indomethacin]
- Raw Signal [3]: 54719
- Z-score [4]: 0.05469

Molecule: CCOC(=O)Nc1ccc(NCc2ccc(F)cc2)nc1N [Flupirtine maleate]
- Raw Signal [3]: 54811
- Z-score [4]: -0.07231

Molecule: CCCCCCCC/C=C\CCCCCCCC(=O)NCCO [N-Oleoylethanolamine]
- Raw Signal [3]: 53081
- Z-score [5]: -0.2205

Molecule: NS(=O)(=O)c1cc2c(cc1Cl)N=CNS2(=O)=O [Chlorothiazide]
- Raw Signal [6]: 49210
- Z-score [7]: -1.533

Molecule: O=C(O)C=Cc1c[nH]cn1 [4-Imidazoleacrylic acid]
- Raw Signal [3]: 54766
- Z-score [5]: -0.2444

Molecule: O=P1(N(CCCl)CCCl)NCCCO1 (stereo not shown) [Cyclophosphamide monohydrate]
- Raw Signal: 58935
- Z-score: 0.18

Molecule: c1ccc(C2CN3CCSC3=N2)cc1 (stereo not shown) [Tetramisole hydrochloride]
- Raw Signal [6]: 64300
- Z-score [8]: 1.608

Molecule: CC(C)(C=O)Cc1cc(C(C)(C)C)c(O)c(C(C)(C)C)c1 [CGP-13501]
- Raw Signal [3]: 59120
- Z-score [4]: 0.2126

Molecule: C=CCN1CC[C@]23CCCC[C@H]2[C@H]1Cc1ccc(O)cc13 [Levallorphan tartrate]
- Raw Signal [3]: 52542
- Z-score [5]: -0.3111

Molecule: CO/N=C(\C(=O)N[C@@H]1C(=O)N2C(C(=O)O)=C(COC(C)=O)CS[C@H]12)c1csc(N)n1 [Cefotaxime sodium]
- Raw Signal [6]: 53540
- Z-score [7]: -0.7702

Molecule: CC1=C(/C=C/C(C)=C/C=C/C(C)=C/C(=O)O)C(C)(C)CCC1 [Retinoic acid]
- Raw Signal [6]: 50659
- Z-score [7]: -1.042

Molecule: Oc1ccc2c3c1O[C@H]1[C@@H](O)CC[C@@]4(O)[C@@H](C2)N(CC2CCC2)CC[C@]314 [Nalbuphine hydrochloride]
- Raw Signal: 53889
- Z-score: -0.08477

Molecule: O=c1[nH]c2ccccc2n1C1CCN(CCCC(c2ccc(F)cc2)c2ccc(F)cc2)CC1 [Pimozide]
- Raw Signal [3]: 53926
- Z-score [4]: -0.07855

Molecule: CN(C)CCOC(c1ccccc1)c1ccccc1 [Diphenhydramine hydrochloride]
- Raw Signal [3]: 54459
- Z-score [5]: -0.1438

Molecule: C1COC(NC(C2CC2)C2CC2)=N1 [Rilmenidine hemifumarate]
- Raw Signal [3]: 56006
- Z-score [4]: -0.003459

Source: PMC5706701, “Development of a homogenous high-throughput assay for inositol hexakisphosphate kinase 1 activity” (PLoS ONE, 2017)
